#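 96-well plates; 48 h exposure; 5 concentrations. Endpoints by linear interpolation between flanking doses. Not reached: highest tested concentration assigned. Definition used: TGI = concentration required for complete inhibition of growth.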
# How the values were obtained:
# Test in all cases: NCI tumour cell line growth inhibition, 48 h
# 786-0 renal = test system: 786-0 renal
# A498 renal = test system: A498 renal
# A549 NSCLC = test system: A549 NSCLC
# ACHN renal = test system: ACHN renal
# CCRF-CEM leukemia = test system: CCRF-CEM leukemia
# COLO 205 colon = test system: COLO 205 colon
# DLD-1 colon = test system: DLD-1 colon
# DMS 114 small cell lung = test system: DMS 114 small cell lung
# EKVX NSCLC = test system: EKVX NSCLC
# HCC-2998 colon = test system: HCC-2998 colon
# HCT-116 colon = test system: HCT-116 colon
# HCT-15 colon = test system: HCT-15 colon
# HL-60(TB) leukemia = test system: HL-60(TB) leukemia
# HOP-62 NSCLC = test system: HOP-62 NSCLC
# HOP-92 NSCLC = test system: HOP-92 NSCLC
# IGROV1 ovarian = test system: IGROV1 ovarian
# K-562 leukemia = test system: K-562 leukemia
# KM12 colon = test system: KM12 colon
# KM20L2 colon = test system: KM20L2 colon
# LXFL 529 NSCLC = test system: LXFL 529 NSCLC
# M14 melanoma = test system: M14 melanoma
# M19-MEL melanoma = test system: M19-MEL melanoma
# MALME-3M melanoma = test system: MALME-3M melanoma
# MOLT-4 leukemia = test system: MOLT-4 leukemia
# NCI-H23 lung = test system: NCI-H23 lung
# NCI-H460 lung = test system: NCI-H460 lung
# NCI-H522 lung = test system: NCI-H522 lung
# OVCAR-3 ovarian = test system: OVCAR-3 ovarian
# OVCAR-4 ovarian = test system: OVCAR-4 ovarian
# OVCAR-5 ovarian = test system: OVCAR-5 ovarian
# OVCAR-8 ovarian = test system: OVCAR-8 ovarian
# RPMI-8226 leukemia = test system: RPMI-8226 leukemia
# RXF 393 renal = test system: RXF 393 renal
# RXF-631 renal = test system: RXF-631 renal
# SF-268 CNS = test system: SF-268 CNS
# SF-295 CNS = test system: SF-295 CNS
# SF-539 CNS = test system: SF-539 CNS
# SK-MEL-2 melanoma = test system: SK-MEL-2 melanoma
# SK-MEL-28 melanoma = test system: SK-MEL-28 melanoma
# SK-MEL-5 melanoma = test system: SK-MEL-5 melanoma
# SK-OV-3 ovarian = test system: SK-OV-3 ovarian
# SNB-19 CNS = test system: SNB-19 CNS
# SNB-75 CNS = test system: SNB-75 CNS
# SNB-78 CNS = test system: SNB-78 CNS
# SW-620 colon = test system: SW-620 colon
# TK-10 renal = test system: TK-10 renal
# U251 CNS = test system: U251 CNS
# UACC-257 melanoma = test system: UACC-257 melanoma
# UACC-62 melanoma = test system: UACC-62 melanoma
# UO-31 renal = test system: UO-31 renal
# BT-549 breast = test system: BT-549 breast
# CAKI-1 renal = test system: CAKI-1 renal
# DMS 273 small cell lung = test system: DMS 273 small cell lung
# DU-145 prostate = test system: DU-145 prostate
# HOP-18 NSCLC = test system: HOP-18 NSCLC
# HS 578T breast = test system: HS 578T breast
# HT29 colon = test system: HT29 colon
# LOX IMVI melanoma = test system: LOX IMVI melanoma
# MCF7 breast = test system: MCF7 breast
# MDA-MB-231 breast = test system: MDA-MB-231 breast
# MDA-MB-435 = test system: MDA-MB-435
# NCI-H226 lung = test system: NCI-H226 lung
# NCI/ADR-RES ovarian = test system: NCI/ADR-RES ovarian
# PC-3 prostate = test system: PC-3 prostate
# SN12C renal = test system: SN12C renal
# SR leukemia = test system: SR leukemia
# T-47D breast = test system: T-47D breast
# XF 498 CNS = test system: XF 498 CNS
structure (smiles),measurement,setting,value
O=C(Cc1cc[n+]([O-])cc1)C(=O)Nc1cc(Cl)c(Cl)cc1Cl,TGI,786-0 renal,> 100 µM
same,TGI,A498 renal,> 100 µM
same,TGI,A549 NSCLC,> 100 µM
same,TGI,ACHN renal,> 100 µM
same,TGI,CCRF-CEM leukemia,> 100 µM
same,TGI,COLO 205 colon,> 100 µM
same,TGI,DLD-1 colon,> 100 µM
same,TGI,DMS 114 small cell lung,> 100 µM
same,TGI,EKVX NSCLC,> 100 µM
same,TGI,HCC-2998 colon,> 100 µM
same,TGI,HCT-116 colon,> 100 µM
same,TGI,HCT-15 colon,> 100 µM
same,TGI,HL-60(TB) leukemia,> 100 µM
same,TGI,HOP-62 NSCLC,> 100 µM
same,TGI,HOP-92 NSCLC,> 100 µM
same,TGI,IGROV1 ovarian,> 100 µM
same,TGI,K-562 leukemia,> 100 µM
same,TGI,KM12 colon,> 100 µM
same,TGI,KM20L2 colon,> 100 µM
same,TGI,LXFL 529 NSCLC,> 100 µM
same,TGI,M14 melanoma,> 100 µM
same,TGI,M19-MEL melanoma,> 100 µM
same,TGI,MALME-3M melanoma,> 100 µM
same,TGI,MOLT-4 leukemia,> 100 µM
same,TGI,NCI-H23 lung,> 100 µM
same,TGI,NCI-H460 lung,> 100 µM
same,TGI,NCI-H522 lung,> 100 µM
same,TGI,OVCAR-3 ovarian,> 100 µM
same,TGI,OVCAR-4 ovarian,> 100 µM
same,TGI,OVCAR-5 ovarian,> 100 µM
same,TGI,OVCAR-8 ovarian,> 100 µM
same,TGI,RPMI-8226 leukemia,> 100 µM
same,TGI,RXF 393 renal,> 100 µM
same,TGI,RXF-631 renal,> 100 µM
same,TGI,SF-268 CNS,> 100 µM
same,TGI,SF-295 CNS,> 100 µM
same,TGI,SF-539 CNS,> 100 µM
same,TGI,SK-MEL-2 melanoma,> 100 µM
same,TGI,SK-MEL-28 melanoma,> 100 µM
same,TGI,SK-MEL-5 melanoma,> 100 µM
same,TGI,SK-OV-3 ovarian,> 100 µM
same,TGI,SNB-19 CNS,> 100 µM
same,TGI,SNB-75 CNS,> 100 µM
same,TGI,SNB-78 CNS,> 100 µM
same,TGI,SW-620 colon,> 100 µM
same,TGI,TK-10 renal,> 100 µM
same,TGI,U251 CNS,> 100 µM
same,TGI,UACC-257 melanoma,> 100 µM
same,TGI,UACC-62 melanoma,> 100 µM
same,TGI,UO-31 renal,> 100 µM
NC(N)=NS(=O)(=O)c1ccc(NC(=O)c2cccc3c(=O)c4ccccc4[nH]c23)cc1,TGI,786-0 renal,> 92.6 µM
same,TGI,A498 renal,> 100 µM
same,TGI,A549 NSCLC,> 100 µM
same,TGI,ACHN renal,> 100 µM
same,TGI,BT-549 breast,> 100 µM
same,TGI,CAKI-1 renal,> 100 µM
same,TGI,CCRF-CEM leukemia,> 31.6 µM
same,TGI,COLO 205 colon,> 100 µM
same,TGI,DLD-1 colon,> 100 µM
same,TGI,DMS 114 small cell lung,> 100 µM
same,TGI,DMS 273 small cell lung,> 100 µM
same,TGI,DU-145 prostate,> 100 µM
same,TGI,EKVX NSCLC,> 100 µM
same,TGI,HCC-2998 colon,> 100 µM
same,TGI,HCT-116 colon,> 100 µM
same,TGI,HCT-15 colon,> 100 µM
same,TGI,HL-60(TB) leukemia,> 100 µM
same,TGI,HOP-18 NSCLC,> 100 µM
same,TGI,HOP-62 NSCLC,> 100 µM
same,TGI,HOP-92 NSCLC,> 96.2 µM
same,TGI,HS 578T breast,> 100 µM
same,TGI,HT29 colon,> 100 µM
same,TGI,IGROV1 ovarian,> 100 µM
same,TGI,K-562 leukemia,> 56.2 µM
same,TGI,KM12 colon,> 100 µM
same,TGI,KM20L2 colon,> 100 µM
same,TGI,LOX IMVI melanoma,> 100 µM
same,TGI,LXFL 529 NSCLC,> 100 µM
same,TGI,M14 melanoma,> 100 µM
same,TGI,M19-MEL melanoma,> 100 µM
same,TGI,MALME-3M melanoma,> 100 µM
same,TGI,MCF7 breast,> 100 µM
same,TGI,MDA-MB-231 breast,> 100 µM
same,TGI,MDA-MB-435,> 100 µM
same,TGI,MOLT-4 leukemia,> 100 µM
same,TGI,NCI-H226 lung,> 100 µM
same,TGI,NCI-H23 lung,> 100 µM
same,TGI,NCI-H460 lung,> 100 µM
same,TGI,NCI-H522 lung,> 100 µM
same,TGI,NCI/ADR-RES ovarian,> 100 µM
same,TGI,OVCAR-3 ovarian,> 100 µM
same,TGI,OVCAR-4 ovarian,> 100 µM
same,TGI,OVCAR-5 ovarian,> 100 µM
same,TGI,OVCAR-8 ovarian,> 100 µM
same,TGI,PC-3 prostate,> 100 µM
same,TGI,RPMI-8226 leukemia,> 100 µM
same,TGI,RXF 393 renal,> 80.3 µM
same,TGI,SF-268 CNS,> 100 µM
same,TGI,SF-295 CNS,> 100 µM
same,TGI,SF-539 CNS,> 100 µM
same,TGI,SK-MEL-2 melanoma,> 100 µM
same,TGI,SK-MEL-28 melanoma,> 100 µM
same,TGI,SK-MEL-5 melanoma,> 100 µM
same,TGI,SK-OV-3 ovarian,> 91.9 µM
same,TGI,SN12C renal,> 100 µM
same,TGI,SNB-19 CNS,> 100 µM
same,TGI,SNB-75 CNS,51.3 µM
same,TGI,SNB-78 CNS,> 100 µM
same,TGI,SR leukemia,> 100 µM
same,TGI,SW-620 colon,> 100 µM
same,TGI,T-47D breast,> 100 µM
same,TGI,TK-10 renal,> 81.2 µM
same,TGI,U251 CNS,69.2 µM
same,TGI,UACC-257 melanoma,> 100 µM
same,TGI,UACC-62 melanoma,> 100 µM
same,TGI,UO-31 renal,> 100 µM
same,TGI,XF 498 CNS,> 100 µM

# From PubChem BioAssay (NCI)
